Source: publication PMC5007552, “The hVps34‐SGK3 pathway alleviates sustained PI3K/Akt inhibition by stimulating mTORC1 and tumour growth” (The EMBO Journal, 2016)
Where “and” joins values, the source holds several entries; their conditions need not be identical. Identical values can stand only once.

System: ZR-75-1 cells
Assay: NanoString human kinome mRNA quantification
Type: cell-based
Description: Human mRNAs were hybridised to NanoString human kinome and control code sets, then subjected to quantification using NanoString software. […] To permit data compaction, and simple kinome‐wide comparisons, the fold changes are log2 transformed. […] Cell pellets were resuspended at a concentration of ~6,500 cells/μl in RLT buffer (Qiagen). […] For total copy numbers, triplicate normalised count values were averaged, and to calculate fold induction, means were divided by triplicate mean values from matched DMSO controls. P‐values were calculated using unpaired t‐test (GraphPad Prism software) by employing treated and control count data for each kinase mRNA.

SMILES: NC1(c2ccc(-c3nc4ccn5c(=O)[nH]nc5c4cc3-c3ccccc3)cc2)CCC1 [MK-2206]
- BRD4 Normalised counts (BRD4 mRNA, single replicates): 2584.75 and 2591.35 and 2590.29
- BRDT Average normalised counts (BRDT mRNA, average of 3 replicates): 1
- BRDT Normalised counts (BRDT mRNA, single replicates): 1
- BRSK1 Average normalised counts (BRSK1 mRNA, average of 3 replicates): 145.583
- BRSK1 Normalised counts (BRSK1 mRNA, single replicates): 127.82 and 151.05 and 157.88
- BRSK2 Average normalised counts (BRSK2 mRNA, average of 3 replicates): 4.607
- BRSK2 Normalised counts (BRSK2 mRNA, single replicates): 2.39 and 5.97 and 5.46
- BTK Average normalised counts (BTK mRNA, average of 3 replicates): 1
- BTK Normalised counts (BTK mRNA, single replicates): 1
- BUB1B Average normalised counts (BUB1B mRNA, average of 3 replicates): 1729.87
- BUB1B Normalised counts (BUB1B mRNA, single replicates): 1717.6 and 1711.31 and 1760.7
- BUB1 Average normalised counts (BUB1 mRNA, average of 3 replicates): 648.95
- BUB1 Normalised counts (BUB1 mRNA, single replicates): 644.12 and 665.35 and 637.38
- C9orf96 Average normalised counts (C9orf96 mRNA, average of 3 replicates): 2.773
- C9orf96 Normalised counts (C9orf96 mRNA, single replicates): 1 and 4.24 and 3.08
- C21orf7 Average normalised counts (C21orf7 mRNA, average of 3 replicates): 1
- C21orf7 Normalised counts (C21orf7 mRNA, single replicates): 1
- CAMK1D average normalised counts (CAMK1D mRNA): 339.763
- CAMK1D normalised counts (replicates) (CAMK1D mRNA): 364.15 and 317.85 and 337.29
- CAMK1G average normalised counts (CAMK1G mRNA): 1
- CAMK1G normalised counts (replicates) (CAMK1G mRNA): 1
- CAMK1 average normalised counts (CAMK1 mRNA): 4.053
- CAMK1 normalised counts (replicates) (CAMK1 mRNA): 4.2 and 2.5 and 5.46
- CAMK2A average normalised counts (CAMK2A mRNA): 1
- CAMK2A normalised counts (replicates) (CAMK2A mRNA): 1
- CAMK2B average normalised counts (CAMK2B mRNA): 228.397
- CAMK2B normalised counts (replicates) (CAMK2B mRNA): 211.86
- CAMK2D average normalised counts (CAMK2D mRNA): 829.067
- CAMK2D normalised counts (replicates) (CAMK2D mRNA): 815.91 and 824.33 and 846.96
- CAMK2G average normalised counts (CAMK2G mRNA): 2774.38
- CAMK2G normalised counts (replicates) (CAMK2G mRNA): 2695.65 and 2845.89 and 2781.61
- CAMK4 average normalised counts (CAMK4 mRNA): 3.433
- CAMK4 normalised counts (replicates) (CAMK4 mRNA): 4.2 and 5.1 and 1
- CAMKK1 average normalised counts (CAMKK1 mRNA): 313.75
- CAMKK1 normalised counts (replicates) (CAMKK1 mRNA): 326.89 and 314.38 and 299.98
- CAMKK2 average normalised counts (CAMKK2 mRNA): 584.02
- CAMKK2 normalised counts (replicates) (CAMKK2 mRNA): 568.67 and 607.14 and 576.25
- CAMKV average normalised counts (CAMKV mRNA): 1.5
- CAMKV normalised counts (replicates) (CAMKV mRNA): 1 (2×) and 2.5
- CASK average normalised counts (CASK mRNA): 727.217
- CASK normalised counts (replicates) (CASK mRNA): 714.11 and 680.12 and 787.42
- CCL2 average normalised counts (CCL2 mRNA): 6.427
- CCL2 normalised counts (replicates) (CCL2 mRNA): 9.66 and 3.37 and 6.25
- CDC7 average normalised counts (CDC7 mRNA): 336.743
- CDC7 normalised counts (replicates) (CDC7 mRNA): 335.98 and 336.96 and 337.29
- CDC42BPA average normalised counts (CDC42BPA mRNA): 675.63
- CDC42BPA normalised counts (replicates) (CDC42BPA mRNA): 678.66 and 677.51 and 670.72
- CDC42BPB average normalised counts (CDC42BPB mRNA): 1143.02
- CDC42BPB normalised counts (replicates) (CDC42BPB mRNA): 1097.69 and 1178.77 and 1152.6
- CDC42BPG average normalised counts (CDC42BPG mRNA): 104.73
- CDC42BPG normalised counts (replicates) (CDC42BPG mRNA): 110.55 and 108.48 and 95.16
- CDK1 average normalised counts (CDK1 mRNA): 3517.89
- CDK1 normalised counts (replicates) (CDK1 mRNA): 3504.63 and 3450.53 and 3598.5
- CDK2 average normalised counts (CDK2 mRNA): 369.187
- CDK2 normalised counts (replicates) (CDK2 mRNA): 366.88 and 370.84 and 369.84
- CDK3 average normalised counts (CDK3 mRNA): 56.79
- CDK3 normalised counts (replicates) (CDK3 mRNA): 49.65 and 58.1 and 62.62
- CDK4 average normalised counts (CDK4 mRNA): 2610.07
- CDK4 normalised counts (replicates) (CDK4 mRNA): 2590.21 and 2633.05 and 2606.96
- CDK5 average normalised counts (CDK5 mRNA): 1339.04
- CDK5 normalised counts (replicates) (CDK5 mRNA): 1332.2 and 1264.78 and 1420.13
- CDK6 average normalised counts (CDK6 mRNA): 35.6167
- CDK6 normalised counts (replicates) (CDK6 mRNA): 34.2 and 34.64 and 38.01
- CDK7 average normalised counts (CDK7 mRNA): 605.207
- CDK7 normalised counts (replicates) (CDK7 mRNA): 585.94 and 619.3 and 610.38
- CDK8 average normalised counts (CDK8 mRNA): 908.99
- CDK8 normalised counts (replicates) (CDK8 mRNA): 898.63 and 942.48 and 885.86
- CDK9 average normalised counts (CDK9 mRNA): 879.65
- CDK9 normalised counts (replicates) (CDK9 mRNA): 853.18 and 899.91 and 885.86
- CDK10 average normalised counts (CDK10 mRNA): 437.29
- CDK10 normalised counts (replicates) (CDK10 mRNA): 440.51 and 431.66 and 439.7
- CDK11A average normalised counts (CDK11A mRNA): 420.55
- CDK11A normalised counts (replicates) (CDK11A mRNA): 435.96 and 389.96 and 435.73
- CDK12 average normalised counts (CDK12 mRNA): 928.887
- CDK12 normalised counts (replicates) (CDK12 mRNA): 909.53 and 946.82 and 930.31
- CDK13 average normalised counts (CDK13 mRNA): 1530.42
- CDK13 normalised counts (replicates) (CDK13 mRNA): 1564.9 and 1505.42 and 1520.95
- CDK14 average normalised counts (CDK14 mRNA): 158.347
- CDK14 normalised counts (replicates) (CDK14 mRNA): 151.46 and 173.64 and 149.94
- CDK15 average normalised counts (CDK15 mRNA): 1
- CDK15 normalised counts (replicates) (CDK15 mRNA): 1
- CDK16 average normalised counts (CDK16 mRNA): 3907.09
- CDK16 normalised counts (replicates) (CDK16 mRNA): 3890.94 and 3866.66 and 3963.68
- CDK17 average normalised counts (CDK17 mRNA): 1410.09
- CDK17 normalised counts (replicates) (CDK17 mRNA): 1395.83 and 1406.38 and 1428.07
- CDK18 average normalised counts (CDK18 mRNA): 99.86
